Measured values published in ChEMBL document CHEMBL1143950, “Antifungal and cytotoxic activities of some N-substituted aniline derivatives bearing a hetaryl fragment” (Bioorg Med Chem, 2008).
Converted amounts (≈) assume the structure as drawn.

What was measured:
Aspergillus flavus = assay: Antifungal activity against Aspergillus flavus ATCC 9170 by micro-broth dilution method; format: functional
Aspergillus niger = assay: Antifungal activity against Aspergillus niger ATCC 9029 by micro-broth dilution method; format: functional
Candida albicans = assay: Antifungal activity against Candida albicans ATCC 10231 by micro-broth dilution method; format: functional
Cryptococcus neoformans [1] = assay: Antifungal activity against Cryptococcus neoformans IM 961951 by micro-broth dilution method; format: functional
Cryptococcus neoformans [2] = assay: Antifungal activity against Cryptococcus neoformans IM 983036 by micro-broth dilution method; format: functional
Aspergillus fumigatus = assay: Antifungal activity against Aspergillus fumigatus ATCC 26934 by micro-broth dilution method; format: functional
Cryptococcus neoformans [3] = assay: Antifungal activity against Cryptococcus neoformans IM 972751 by microbroth dilution method; format: functional
MCF7 = assay: Cytotoxicity against human MCF7 cells by SRB assay; format: functional, cell-based
Trichophyton rubrum = assay: Antifungal activity against Trichophyton rubrum C113 by microbroth dilution method; format: functional
Saccharomyces cerevisiae = assay: Antifungal activity against Saccharomyces cerevisiae ATCC 9763 by microbroth dilution method; format: functional
Cryptococcus neoformans [4] = assay: Antifungal activity against Cryptococcus neoformans IM 972724 by micro-broth dilution method; format: functional
Cryptococcus neoformans [5] = assay: Antifungal activity against Cryptococcus neoformans IM 983040 by micro-broth dilution method; format: functional
Cryptococcus neoformans [6] = assay: Antifungal activity against Cryptococcus neoformans ATCC 32264 by microbroth dilution method; format: functional
Cryptococcus neoformans [7] = assay: Antifungal activity against Cryptococcus neoformans IM 00319 by microbroth dilution method; format: functional
SF-268 = assay: Cytotoxicity against human SF268 cells by SRB assay; format: functional, cell-based
Cryptococcus neoformans [8] = assay: Antifungal activity against Cryptococcus neoformans IM 042074 by micro-broth dilution method; format: functional
[9] = tested on: Trichophyton mentagrophytes; assay: Antifungal activity against Trichophyton mentagrophytes ATCC 9972 by micro-broth dilution method; format: functional
Cryptococcus neoformans [10] = assay: Antifungal activity against Cryptococcus neoformans IM 031631 by micro-broth dilution method; format: functional
Cryptococcus neoformans [11] = assay: Antifungal activity against Cryptococcus neoformans IM 031706 by micro-broth dilution method; format: functional
NCI-H460 = assay: Cytotoxicity against human H460 cells by SRB assay; format: functional, cell-based
Nannizzia gypsea = assay: Antifungal activity against Microsporum gypseum C115 by microbroth dilution method; format: functional
Candida tropicalis = assay: Antifungal activity against Candida tropicalis C131 by micro-broth dilution method; format: functional

| Structure (SMILES) | MIC (Aspergillus flavus) [µg/mL] | MIC (Aspergillus niger) [µg/mL] | MIC (Candida albicans) [µg/mL] | MIC (Cryptococcus neoformans [1]) [µg/mL] | MIC (Cryptococcus neoformans [2]) [µg/mL] | MIC (Aspergillus fumigatus) [µg/mL] | MIC (Cryptococcus neoformans [3]) [µg/mL] | MIC (Trichophyton rubrum) [µg/mL] | MIC (Saccharomyces cerevisiae) [µg/mL] | MIC (Cryptococcus neoformans [4]) [µg/mL] | MIC (Cryptococcus neoformans [5]) [µg/mL] | MIC (Cryptococcus neoformans [6]) [µg/mL] | MIC (Cryptococcus neoformans [7]) [µg/mL] | MIC (Cryptococcus neoformans [8]) [µg/mL] | MIC [9] [µg/mL] | MIC (Cryptococcus neoformans [10]) [µg/mL] | MIC (Cryptococcus neoformans [11]) [µg/mL] | MIC (Nannizzia gypsea) [µg/mL] | MIC (Candida tropicalis) [µg/mL] | further results |
| --- | --- | --- | --- | --- | --- | --- | --- | --- | --- | --- | --- | --- | --- | --- | --- | --- | --- | --- | --- | --- |
| Ic1ccc(NCc2ccncc2)cc1 | 100 (≈ 322 µM) | 50 (≈ 161 µM) | 50 (≈ 161 µM) | 100 (≈ 322 µM) | 50 (≈ 161 µM) | 50 (≈ 161 µM) | 50 (≈ 161 µM) | 6.25 (≈ 20.2 µM) | 50 (≈ 161 µM) | 25 (≈ 80.6 µM) | 100 (≈ 322 µM) | 25 (≈ 80.6 µM) | 50 (≈ 161 µM) | 50 (≈ 161 µM) | 12.5 (≈ 40.3 µM) | 50 (≈ 161 µM) | 100 (≈ 322 µM) | 12.5 (≈ 40.3 µM) | 50 (≈ 161 µM) | IC50 (MCF7): > 10 µg/mL; IC50 (SF-268): > 10 µg/mL; IC50 (NCI-H460): > 10 µg/mL |
| O=[N+]([O-])c1cccc(NCc2ccncc2)c1 | 200 (≈ 872 µM) | 100 (≈ 436 µM) | 100 (≈ 436 µM) | – | – | 100 (≈ 436 µM) | – | 6.25 (≈ 27.3 µM) | 50 (≈ 218 µM) | – | – | 50 (≈ 218 µM) | – | – | 12.5 (≈ 54.5 µM) | – | – | 12.5 (≈ 54.5 µM) | 100 (≈ 436 µM) | IC50 (MCF7): > 10 µg/mL; IC50 (SF-268): < 10 µg/mL; IC50 (NCI-H460): > 10 µg/mL |
| CCC(C)n1ncn(-c2ccc(N3CCN(c4ccc(OCC5COC(Cn6cncn6)(c6ccc(Cl)cc6Cl)O5)cc4)CC3)cc2)c1=O (stereo not given) [ITRACONAZOLE] | – | – | – | < 0.015 | < 0.015 | – | 0.25 (≈ 0.354 µM) | – | – | 0.25 (≈ 0.354 µM) | < 0.015 | – | < 0.015 | < 0.015 | – | 0.5 (≈ 0.709 µM) | < 0.015 | – | – | – |
| OC(Cn1cncn1)(Cn1cncn1)c1ccc(F)cc1F [FLUCONAZOLE] | – | – | – | 7.8 (≈ 25.5 µM) | 15.6 (≈ 50.9 µM) | – | 31.2 (≈ 102 µM) | – | – | 3.9 (≈ 12.7 µM) | 7.8 (≈ 25.5 µM) | – | 1.9 (≈ 6.2 µM) | 3.9 (≈ 12.7 µM) | – | 31.2 (≈ 102 µM) | 3.9 (≈ 12.7 µM) | – | – | – |
| C[C@@H](c1ncncc1F)[C@](O)(Cn1cncn1)c1ccc(F)cc1F [VORICONAZOLE] | – | – | – | 0.03 (≈ 0.0859 µM) | < 0.015 | – | 0.25 (≈ 0.716 µM) | – | – | < 0.015 | < 0.015 | – | 0.03 (≈ 0.0859 µM) | < 0.015 | – | 0.5 (≈ 1.43 µM) | 0.015 (≈ 0.0429 µM) | – | – | – |
| Nc1nc(=O)[nH]cc1F [FLUCYTOSINE] | – | – | – | 7.8 (≈ 60.4 µM) | – | – | 7.8 (≈ 60.4 µM) | – | – | 3.9 (≈ 30.2 µM) | 7.8 (≈ 60.4 µM) | – | 15.6 (≈ 121 µM) | 3.9 (≈ 30.2 µM) | – | 7.8 (≈ 60.4 µM) | 3.9 (≈ 30.2 µM) | – | – | – |
| Cc1ccc(NCc2ccsc2)cc1 | 250 (≈ 1230 µM) | 250 (≈ 1230 µM) | > 250 | – | – | 250 (≈ 1230 µM) | – | 125 (≈ 615 µM) | > 250 | – | – | 250 (≈ 1230 µM) | – | – | 125 (≈ 615 µM) | – | – | 250 (≈ 1230 µM) | > 250 | – |
| C=CCC(Nc1ccccc1)c1ccncc1 (stereo not given) | 250 (≈ 1110 µM) | 250 (≈ 1110 µM) | 250 (≈ 1110 µM) | – | – | 250 (≈ 1110 µM) | – | 250 (≈ 1110 µM) | 125 (≈ 557 µM) | – | – | 250 (≈ 1110 µM) | – | – | 62.5 (≈ 279 µM) | – | – | 125 (≈ 557 µM) | 250 (≈ 1110 µM) | – |
| c1ccc(NCc2ccccn2)cc1 | > 250 | 250 (≈ 1360 µM) | 250 (≈ 1360 µM) | – | – | 250 (≈ 1360 µM) | – | 25 (≈ 136 µM) | > 250 | – | – | > 250 | – | – | 25 (≈ 136 µM) | – | – | 125 (≈ 678 µM) | 250 (≈ 1360 µM) | – |
| Cn1cccc1CNc1ccccc1 | > 250 | > 250 | > 250 | – | – | > 250 | – | 250 (≈ 1340 µM) | > 250 | – | – | > 250 | – | – | 250 (≈ 1340 µM) | – | – | > 250 | > 250 | – |
